According to ChEMBL document CHEMBL3046781, “Resistance of Helicoverpa assulta (Guenée) (Lepidoptera: Noctuidae) to fenvalerate, phoxim and methomyl in China” (2009):

Experiments:
Type in all cases: functional
[1] = system: Helicoverpa assulta; assay: Resistance factor, ratio of LD50 for sixth-instar larvae of Helicoverpa assulta GZ3 to LD50 for sixth-instar larvae of Helicoverpa assulta at 39 to 12630 mg/l
[2] = system: Helicoverpa assulta; assay: Insecticidal activity against sixth-instar larvae of Helicoverpa assulta YN7 at 39 to 12630 mg/l after 48 hr by chi-squared analysis
[3] = system: Helicoverpa assulta; assay: Insecticidal activity against sixth-instar larvae of Helicoverpa assulta YN3 at 39 to 12630 mg/l after 48 hr by chi-squared analysis
[4] = system: Helicoverpa assulta; assay: Insecticidal activity against sixth-instar larvae of Helicoverpa assulta GZ2 at 39 to 12630 mg/l after 48 hr by chi-squared analysis
[5] = system: Helicoverpa assulta; assay: Insecticidal activity against sixth-instar larvae of Helicoverpa assulta YN6 at 39 to 12630 mg/l after 48 hr by chi-squared analysis
[6] = system: Helicoverpa assulta; assay: Insecticidal activity against sixth-instar larvae of Helicoverpa assulta HB1 at 39 to 12630 mg/l after 48 hr by chi-squared analysis
[7] = system: Helicoverpa assulta; assay: Resistance factor, ratio of LD50 for sixth-instar larvae of Helicoverpa assulta AH1 to LD50 for sixth-instar larvae of Helicoverpa assulta at 39 to 12630 mg/l
[8] = system: Helicoverpa assulta; assay: Resistance factor, ratio of LD50 for sixth-instar larvae of Helicoverpa assulta YN7 to LD50 for sixth-instar larvae of Helicoverpa assulta at 39 to 12630 mg/l
[9] = system: Helicoverpa assulta; assay: Resistance factor, ratio of LD50 for sixth-instar larvae of Helicoverpa assulta GZ2 to LD50 for sixth-instar larvae of Helicoverpa assulta at 39 to 12630 mg/l
[10] = system: Helicoverpa assulta; assay: Resistance factor, ratio of LD50 for sixth-instar larvae of Helicoverpa assulta HB1 to LD50 for sixth-instar larvae of Helicoverpa assulta at 1.8 to 183360 mg/l
[11] = system: Helicoverpa assulta; assay: Resistance factor, ratio of LD50 for sixth-instar larvae of Helicoverpa assulta HB2 to LD50 for sixth-instar larvae of Helicoverpa assulta at 1.8 to 183360 mg/l
[12] = system: Helicoverpa assulta; assay: Resistance factor, ratio of LD50 for sixth-instar larvae of Helicoverpa assulta AH2 to LD50 for sixth-instar larvae of Helicoverpa assulta at 1.8 to 183360 mg/l
[13] = system: Helicoverpa assulta; assay: Resistance factor, ratio of LD50 for sixth-instar larvae of Helicoverpa assulta YN3 to LD50 for sixth-instar larvae of Helicoverpa assulta at 1.8 to 183360 mg/l
[14] = system: Helicoverpa assulta; assay: Resistance factor, ratio of LD50 for sixth-instar larvae of Helicoverpa assulta YN5 to LD50 for sixth-instar larvae of Helicoverpa assulta at 1.8 to 183360 mg/l
[15] = system: Helicoverpa assulta; assay: Resistance factor, ratio of LD50 for sixth-instar larvae of Helicoverpa assulta YN8 to LD50 for sixth-instar larvae of Helicoverpa assulta at 1.8 to 183360 mg/l
[16] = system: Helicoverpa assulta; assay: Insecticidal activity against sixth-instar larvae of Helicoverpa assulta SD1 at 1.8 to 183360 mg/l after 48 hr by chi-squared analysis
[17] = system: Helicoverpa assulta; assay: Insecticidal activity against sixth-instar larvae of Helicoverpa assulta AH3 at 1.8 to 183360 mg/l after 48 hr by chi-squared analysis
[18] = system: Helicoverpa assulta; assay: Insecticidal activity against sixth-instar larvae of Helicoverpa assulta HB2 at 1.8 to 183360 mg/l after 48 hr by chi-squared analysis
[19] = system: Helicoverpa assulta; assay: Insecticidal activity against sixth-instar larvae of Helicoverpa assulta HN1 at 1.8 to 183360 mg/l after 48 hr by chi-squared analysis
[20] = system: Helicoverpa assulta; assay: Insecticidal activity against sixth-instar larvae of Helicoverpa assulta YN5 at 21 to 3390 mg/l after 48 hr by chi-squared analysis
[21] = system: Helicoverpa assulta; assay: Insecticidal activity against sixth-instar larvae of Helicoverpa assulta HB1 at 21 to 3390 mg/l after 48 hr by chi-squared analysis
[22] = system: Helicoverpa assulta; assay: Insecticidal activity against sixth-instar larvae of Helicoverpa assulta at 21 to 3390 mg/l after 48 hr by chi-squared analysis
[23] = system: Helicoverpa assulta; assay: Resistance factor, ratio of LD50 for sixth-instar larvae of Helicoverpa assulta YN1 to LD50 for sixth-instar larvae of Helicoverpa assulta at 21 to 3390 mg/l
[24] = system: Helicoverpa assulta; assay: Insecticidal activity against sixth-instar larvae of Helicoverpa assulta AH3 at 21 to 3390 mg/l after 48 hr by chi-squared analysis
[25] = system: Helicoverpa assulta; assay: Insecticidal activity against sixth-instar larvae of Helicoverpa assulta HB2 at 21 to 3390 mg/l after 48 hr by chi-squared analysis
[26] = system: Helicoverpa assulta; assay: Resistance factor, ratio of LD50 for sixth-instar larvae of Helicoverpa assulta YN8 to LD50 for sixth-instar larvae of Helicoverpa assulta at 21 to 3390 mg/l
[27] = system: Helicoverpa assulta; assay: Resistance factor, ratio of LD50 for sixth-instar larvae of Helicoverpa assulta FJ2 to LD50 for sixth-instar larvae of Helicoverpa assulta at 21 to 3390 mg/l
[28] = system: Helicoverpa assulta; assay: Resistance factor, ratio of LD50 for sixth-instar larvae of Helicoverpa assulta YN2 to LD50 for sixth-instar larvae of Helicoverpa assulta at 21 to 3390 mg/l
[29] = system: Helicoverpa assulta; assay: Resistance factor, ratio of LD50 for sixth-instar larvae of Helicoverpa assulta FJ3 to LD50 for sixth-instar larvae of Helicoverpa assulta at 21 to 3390 mg/l
[30] = system: Helicoverpa assulta; assay: Resistance factor, ratio of LD50 for sixth-instar larvae of Helicoverpa assulta AH2 to LD50 for sixth-instar larvae of Helicoverpa assulta at 21 to 3390 mg/l
[31] = system: Helicoverpa assulta; assay: Resistance factor, ratio of LD50 for sixth-instar larvae of Helicoverpa assulta GZ5 to LD50 for sixth-instar larvae of Helicoverpa assulta at 21 to 3390 mg/l
[32] = system: Helicoverpa assulta; assay: Resistance factor, ratio of LD50 for sixth-instar larvae of Helicoverpa assulta GZ3 to LD50 for sixth-instar larvae of Helicoverpa assulta at 21 to 3390 mg/l
[33] = system: Helicoverpa assulta; assay: Resistance factor, ratio of LD50 for sixth-instar larvae of Helicoverpa assulta GZ2 to LD50 for sixth-instar larvae of Helicoverpa assulta at 21 to 3390 mg/l
[34] = system: Helicoverpa assulta; assay: Resistance factor, ratio of LD50 for sixth-instar larvae of Helicoverpa assulta SD1 to LD50 for sixth-instar larvae of Helicoverpa assulta at 21 to 3390 mg/l
[35] = system: Helicoverpa assulta; assay: Insecticidal activity against sixth-instar larvae of Helicoverpa assulta YN3 at 21 to 3390 mg/l after 48 hr by chi-squared analysis

CCOP(=S)(OCC)O/N=C(\C#N)c1ccccc1 [PHOXIM]
Ratio [1]: 8.94 | LD90 [2]: 131 µg/g | LD50 ([2]; Helicoverpa assulta, YN7, 48 h): 41.8 mg/kg | LD90 [3]: 56.4 µg/g | LD50 ([3]; Helicoverpa assulta, YN3, 48 h): 29.2 mg/kg | LD90 [4]: 101 µg/g | LD50 ([4]; Helicoverpa assulta, GZ2, 48 h): 25.3 mg/kg | LD90 [5]: 72 µg/g | LD50 ([5]; Helicoverpa assulta, YN6, 48 h): 21.3 mg/kg | LD90 [6]: 18.8 µg/g | LD50 ([6]; Helicoverpa assulta, HB1, 48 h): 8.16 mg/kg | Ratio [7]: 50.8 | Ratio [8]: 17.9 | Ratio [9]: 10.8

CC(C)C(C(=O)OC(C#N)c1cccc(Oc2ccccc2)c1)c1ccc(Cl)cc1 (stereo not given) [FENVALERATE]
Ratio [10]: 5.83 | Ratio [11]: 28.5 | Ratio [12]: 415 | Ratio [13]: 1403 | Ratio [14]: 8816 | Ratio [15]: 17622 | LD90 [16]: 14.8 µg/g | LD50 ([16]; Helicoverpa assulta, SD1, 48 h): 1.59 mg/kg | LD90 [17]: 470 µg/g | LD50 ([17]; Helicoverpa assulta, AH3, 48 h): 251 mg/kg | LD90 [18]: 18 µg/g | LD50 ([18]; Helicoverpa assulta, HB2, 48 h): 4.62 mg/kg | LD90 [19]: 23.1 µg/g | LD50 ([19]; Helicoverpa assulta, HN1, 48 h): 10.5 mg/kg

CNC(=O)ON=C(C)SC [METHOMYL]
LD90 [20]: 37.7 µg/g | LD50 ([20]; Helicoverpa assulta, YN5, 48 h): 14.3 mg/kg | LD90 [21]: 27.6 µg/g | LD50 ([21]; Helicoverpa assulta, HB1, 48 h): 12.2 mg/kg | LD90 [22]: 4.1 µg/g | LD50 ([22]; Helicoverpa assulta, 48 h): 1.45 mg/kg | Ratio [23]: 31.6 | LD90 [24]: 44.7 µg/g | LD50 ([24]; Helicoverpa assulta, AH3, 48 h): 18.4 mg/kg | LD90 [25]: 108 µg/g | LD50 ([25]; Helicoverpa assulta, HB2, 48 h): 15.8 mg/kg | Ratio [26]: 23.1 | Ratio [27]: 19.9 | Ratio [28]: 18.4 | Ratio [29]: 16.3 | Ratio [30]: 15.3 | Ratio [31]: 14.5 | Ratio [32]: 14.4 | Ratio [33]: 13.9 | Ratio [34]: 3.93 | LD90 [35]: 78.5 µg/g | LD50 ([35]; Helicoverpa assulta, YN3, 48 h): 33.3 mg/kg
